Source: PMC8341910, “Structural and biophysical insights into the mode of covalent binding of rationally designed potent BMX inhibitors” (RSC Chemical Biology, 2020)
“And” between values parts separate entries of the source, which are not always exact repeats. Equal values may be shown once. Read-outs that look alike come from different tables or passages of the source.

Columns and labels:
[1] = test system: SK-N-MC; experiment: Multi cell line growth assay (CellTiter-Glo, 72 h); assay type: cell-based, human; conditions: Homo sapiens, SK-N-MC, Brain, ND = no growth inhibition observed
[2] = pH 6.8
Source text: (§1) For assessment of drug permeability, we relied on parallel artificial membrane permeability assay (PAMPA) performed at Pion Inc. with the PAMPA Evolution™ instrument (Table S1, ESI ^†).
(§2) methods (ESOL model1 and Ali et al.2) PAMPA: Pe is effective permeability (x10-6 cm/sec)
(§3) measured directly from assay at pH 6.8 and %R is membrane retention.
(§4) as the average of quadruplicates. Und label refers to compounds with extremely low solubility
(§5) for which UV limits were below the detection limits therefore considered undetected.
(§6) Compounds were labelled as high permeability (green), medium permeability (orange) or low
(§7) Artificial Membrane Permeability (PAMPA):
(§8) The PAMPA Evolution™ instrument was used to determine permeability, at Pion Inc. In
(§9) PAMPA, a sandwich is formed such that each composite well is divided into two chambers,
(§10) measured at pH 6.8 in the donor compartment using low-binding, low UV Prisma buffer. The
(§11) drug-free acceptor compartment was filled with acceptor sink buffer containing a scavenger at
(§12) the start of the test. The proprietary scavenger mimics serum proteins and blood circulation,
(§13) thus creating sink conditions. Aqueous solutions of studied compounds are prepared by diluting
(§14) and thoroughly mixing 3 µL of DMSO stock in 600 µL of Prisma HT buffer. Final
(§15) concentration of organic solvent (DMSO) in aqueous buffer is ≤ 0.5% (v/v). The reference
(§16) solution is identical to the donor at time zero, so that any surface adsorption effects from the
(§17) plastic ware is compensated. The PAMPA sandwich was assembled and allowed to incubate
(§18) for ~15 hours. The solutions in the donor compartment were un-stirred within duration of the
(§19) experiment. Thus, the thickness of the aqueous boundary layer expected to be about 1000 µm.
(§20) The sandwich was then separated, and both the donor and receiver compartments were assayed
(§21) for the amount of drug present by comparison with the UV spectrum obtained from reference

[3] = test system: MDA-MB-231; experiment: Multi cell line growth assay (CellTiter-Glo, 72 h); assay type: cell-based; conditions: Homo sapiens, Breast, ND = no growth inhibition observed
[4] = test system: DU145; experiment: Multi cell line growth assay (CellTiter-Glo, 72 h); assay type: cell-based; conditions: Homo sapiens, DU-145, Prostate, ND = no growth inhibition observed
[5] = target: NanoLuc®-BMX fusion vector in HEK293 cells (Homo sapiens, UniProt P51813); experiment: NanoBRET TE intracellular kinase assay; assay type: cell-based; conditions: HEK293 transiently transfected with BMX; 1 h; duplicate, mean ± S.D.; read-out: intracellular target engagement IC50
Experimental: Target Engagement Intracellular Kinase Assay:
In-cell target engagement was performed at the Reaction Biology Corporation (USA) using the NanoBRETTM technology. Very briefly, HEK296 cells, purchased from ATCC, were
with the reference compound Dasatinib, for 1 hour of incubation. Compounds were diluted 10 times with 3-fold dilution, starting at 1 µM. Curve fits were performed only when % NanoBret
determined using the GraphPad Prism 8 (USA).

[6] = target: T1, recombinant human BMX protein (hBMX) (Homo sapiens, UniProt P51813); experiment: Differential scanning fluorimetry (DSF); assay type: binding; conditions: 100 μM compound
T1 construct: Crystallization, data collection, and structure determination of BMX catalytic domain in; made in house; host or cells: Sf-9 insect cells
Experimental: We further characterized the binding interaction between JS24–JS27 and BMX by using differential scanning fluorimetry (DSF) and surface plasmon resonance (SPR). Purified recombinant human BMX protein (hBMX) was first subjected to thermal scanning in the absence and presence of JS24–JS27, and the respective protein melting temperature (Tm) calculated.
Differential Scanning Fluorimetry:
DSF was performed in MicroAmp™ EnduraPlate™ Optical 96 -Well Clear Reaction Plates
with Barcode (Applied Biosystems, Life Technologies, California, USA) using a QuantStudio
7 Flex Real-Time PCR System (Applied Biosystems). Pre-incubation of the protein with the
compound for 2 hours at 4 °C was required prior to DSF experiments. The final reaction mixture
(20 μL of total volume) contained 4 μg of His6-BMX, 4-fold of Protein Thermal Shift™ Dye
(Applied Biosystems) diluted in protein buffer solution, and 100 μM of compound. The
temperatures were obtained by taking the midpoint of each transition.

[7] = test system: 22 RV1; experiment: Multi cell line growth assay (CellTiter-Glo, 72 h); assay type: cell-based, human; conditions: Homo sapiens, 22Rv1, Prostate, ND = no growth inhibition observed
[8] = test system: PC3 cells; experiment: PC-3 cell growth assay (CellTiter-Glo, 96 h); assay type: cell-based; conditions: Homo sapiens, PC-3, 96 h, read-out: GI50 PC3
Experimental: (§22) GI50 values are reported in μM and are the mean of three individual experiments performed in triplicate. N.d., non-determined, no growth inhibition observed within the concentrations tested.
(§23) Cellular activity Assay: LNCaP and PC-3 Cell Growth Assay
(§24) Cells were seeded in white, opaque-bottom 96-well plates at 5000 cells/well (LNCaP) or 2000 cells/well (PC-3) in a total volume of 100 µL of culture media.
(§25) fold) in 100 µL media were added to the cells 24 hours later. After 96 hours incubation cellular viability was assessed by CellTiter-Glo® (Promega) according to the manufacturer’s instructions. The values were normalized to vehicle and IC50 was calculated using GraphPad

[9] = test system: DAUDI; experiment: Multi cell line growth assay (CellTiter-Glo, 72 h); assay type: cell-based, human; conditions: Homo sapiens, Daudi, Lymphoid, ND = no growth inhibition observed
[10] = in vitro; conditions: PAMPA
Source text: as §1, §2, §3, §4, §5, §6, §7, §8, §9, §10, §11, §12, §13, §14, §15, §16, §17, §18, §19, §20, §21

[11] = test system: Kasumi; experiment: Multi cell line growth assay (CellTiter-Glo, 72 h); assay type: cell-based, human; conditions: Homo sapiens, Blood, ND = no growth inhibition observed
[12] = target: T2, wild-type BMX in PC3 cells (Homo sapiens, UniProt P51813); experiment: BMX degradation assay in PC3 cells (Western blot); assay type: cell-based; conditions: 10 μM; 24 h and 72 h; band intensity normalized to α-Tubulin
T2 construct: endogenous in cells; host or cells: PC3 prostate cancer cells (wild-type, untransfected)
Experimental: The cell proliferation depends on BMX kinase activity that was used to monitor the cellular activity of the compounds (IC50). […].  Fig. 5 (a) Intracellular target engagement in HEK293 cells transiently transfected with BMX expressing NanoLuc®-BMX fusion vector with Promega's NanoBRET™ TE Intracellular Kinase Assay. […] Band intensity was measured using ImageJ and normalized with α-Tubulin band intensity. […] Data are mean ± standard deviation obtained from at least three independent measurements (n = 3). See ESI ^† for additional data and analysis. […] | page 12: […]
degradation assay. Protein band intensity normalized with α-Tubulin band intensity and quantified using ImageJ. Data was obtained from at least three independent measurements […]
concentration against PC3 cells, plated on 6-well plates, a day after attachment. DMSO was used as a control vehicle. At 24 h and 72 h of incubation, cells were washed in 1X PBS and lysed in 100 µL RIPA Buffer (in house) supplemented with EDTA-free Protease Inhibitor Cocktail (Merk) and DNase I (Merk). The lysis procedure was performed by re-suspending cells continuously, followed by a incubation of 30 min on ice. BMX antibody (Abcam) and tubulin antibody (Cell signaling Technology) were used in the Western blot. Band intensity […]

[13] = test system: PC3; experiment: Multi cell line growth assay (CellTiter-Glo, 72 h); assay type: cell-based, human; conditions: Homo sapiens, PC-3, Prostate, ND = no growth inhibition observed
[14] = test system: RS4(11); experiment: Multi cell line growth assay (CellTiter-Glo, 72 h); assay type: cell-based, human; conditions: Homo sapiens, RS4-11, Lung (so in the source), ND = no growth inhibition observed
[15] = test system: LNCaP; experiment: Multi cell line growth assay (CellTiter-Glo, 72 h); assay type: cell-based, human; conditions: Homo sapiens, LNCaP, Prostate, ND = no growth inhibition observed within the concentrations tested
[16] = Dynamic light scattering, colloidal aggregation; assay type: physicochemical; conditions: deionized and filtered water (0.1% DMSO), kinetic from dmso stock, measured at 10 µM, 1 µM and 100 nM, 25 °C, read-out: DLS maximum soluble concentration at which no aggregates are observed
[17] = target: T3, BMX (Homo sapiens, UniProt P51813); experiment: BMX biochemical activity assay (HTRF, phosphorylation of a biotinylated peptide)
T3 sequence (P51813 1-675): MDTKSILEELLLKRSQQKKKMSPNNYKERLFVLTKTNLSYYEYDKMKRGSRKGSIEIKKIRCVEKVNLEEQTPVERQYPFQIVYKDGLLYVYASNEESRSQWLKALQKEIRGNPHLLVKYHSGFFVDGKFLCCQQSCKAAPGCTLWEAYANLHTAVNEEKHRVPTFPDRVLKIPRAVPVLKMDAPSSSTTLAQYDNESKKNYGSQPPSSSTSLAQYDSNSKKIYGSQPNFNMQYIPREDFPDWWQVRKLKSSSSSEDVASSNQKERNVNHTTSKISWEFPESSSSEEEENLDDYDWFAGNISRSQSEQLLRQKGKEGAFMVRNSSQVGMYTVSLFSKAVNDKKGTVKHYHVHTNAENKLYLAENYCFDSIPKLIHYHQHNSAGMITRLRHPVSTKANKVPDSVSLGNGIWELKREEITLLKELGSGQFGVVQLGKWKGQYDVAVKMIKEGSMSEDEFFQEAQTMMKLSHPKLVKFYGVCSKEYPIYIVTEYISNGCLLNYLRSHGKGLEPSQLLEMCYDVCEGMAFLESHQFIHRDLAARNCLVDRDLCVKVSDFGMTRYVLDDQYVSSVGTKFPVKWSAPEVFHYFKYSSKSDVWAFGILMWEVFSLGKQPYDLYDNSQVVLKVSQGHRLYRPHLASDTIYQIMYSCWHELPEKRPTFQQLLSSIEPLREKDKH

[18] = test system: CAOV3; experiment: Multi cell line growth assay (CellTiter-Glo, 72 h); assay type: cell-based, human; conditions: Homo sapiens, Caov-3, Ovary, ND = no growth inhibition observed
[19] = test system: U-87MG; experiment: Multi cell line growth assay (CellTiter-Glo, 72 h); assay type: cell-based; conditions: Homo sapiens, Brain, ND = no growth inhibition observed
[20] = target: T4, His6-hsBMX (Homo sapiens, UniProt P51813); experiment: Surface plasmon resonance (SPR); assay type: binding; conditions: from kinetic constants
T4 construct: Crystallization, data collection, and structure determination of BMX catalytic domain in; made in house; host or cells: Sf-9 insect cells
Source text: response upon compound injection (t=0s), or upon washing (t=220s), on immobilized His6-
hsBMX surfaces. Compound concentrations injected on already saturated surfaces were not
included in the 1:1 Langmuir fitting model. X-axis: time (s); y-axis: response (arbitrary units).
Inset plots [x-axis: compound concentration (M); y-axis: response (arbitrary units)] show the
steady-state affinity (KDss) fit for the interactions wherein equilibrium was reached.
Surface Plasmon Resonance:
The kinetic and affinity parameters of protein-compound interaction were evaluated by SPR.
Experiments were carried out in a Biacore 4000 instrument (Biacore AB, GE Healthcare Life
Sciences, Uppsala, Sweden) at 25 °C. His6-BMX protein was diluted to 10 µg/mL in sodium
acetate pH 5.5, in the presence of 5 µM staurosporine and immobilized onto CM5 (Series S)
sensor chips, using the standard amine coupling procedure. Prior to immobilization, the
carboxymethylated surface of the chip was activated with 400 mM 1-ethyl-3-(3-
dimethylaminopropyl)-carbodiimide and 100 mM N-hydroxysuccinimide for 10 min. HBS-N
(10 mM HEPES pH7.4, 150mM NaCl) was used as the background buffer. Protein was coupled
to the surface after 2 to 10 min injection times, at a flow rate of 10 µL/min, in order to reach
1500 to 3500 response units (RU). The remaining activated carboxymethylated groups were
blocked with a 7 min injection of 1 M ethanolamine pH 8.5. Compounds were pre-diluted in
DMSO to 50x the desired highest tested concentration and diluted afterwards in running buffer
(20 mM HEPES pH 7.4, 150 mM NaCl, 1 mM DTT, 0.1 mM EGTA, 0.05 % (v/v) TWEEN-
20, 5 mM MgCl2) in order to reach 2% of DMSO concentration. A DMSO solvent correction
(1% - 3%) was performed to account for variations in bulk signal and to achieve high-quality
data. Each compound was injected over immobilized His6-BMX for 220 s (30 µL min-1;
association phase) followed by 600 to 2000 s of buffer flow (dissociation phase) at a maximum
five times in 2-fold dilution series. All sensorgrams were processed by first subtracting the
binding response recorded from the control surface (reference spot), followed by subtracting
the buffer blank injection from the reaction spot. All datasets were fit to a simple 1:1 Langmuir
interaction model with the provided Biacore 4000 Evaluation software, to determine kinetic rate constants (kon, koff) or steady-state affinity (KDss).

[21] = test system: Jurkat; experiment: Multi cell line growth assay (CellTiter-Glo, 72 h); assay type: cell-based, human; conditions: Homo sapiens, Jurkat, Blood, ND = no growth inhibition observed
[22] = test system: LNCaP cells; experiment: LNCaP cell growth assay (CellTiter-Glo, 96 h); assay type: cell-based; conditions: Homo sapiens, read-out: GI50 LNCaP
Experimental: as §22, §23, §24, §25

Question: Which results are given for `C=CC(=O)Nc1cc(-n2c(=O)ccc3cnc4ccc(-c5ccc(NS(C)(=O)=O)cc5)cc4c32)ccc1C` [BMX-IN-1, reference compound]?
Answer: GI50 [1]: 2360 nM; PAMPA/%R membrane retention [2]: 55±8%; GI50 [3]: 23.6 ± 0.48 µM; GI50 [4]: 17.7 µM; IC50 [5]: 495 nM; ΔTm at 100 µM ([6]; versus apo-BMX, read-out: ΔTm): 8.04 ± 0.32 °C; Average Tm of BMX with compound ([6]; apo-BMX Tm 51.8-52.2 °C): 60.17±0.32 °C; GI50 [7]: 2070 ± 60 nM; GI50 [8]: 11.5 ± 2.2 µM; GI50 [9]: 1680 ± 70 nM; Papp ([10]; pH 6.8, PAMPA permeability): 8.9 ×10⁻⁶ cm/s; Papp ([10]; pH 6.8, PAMPA/Pe effective permeability): 8.9 ± 0.8 ×10⁻⁶ cm/s; GI50 [11]: 3.13 ± 0.06 µM; degradation of BMX protein [12]: induce degradation of wild-type BMX in PC3 cells; GI50 [13]: 11 ± 1.13 µM; GI50 [14]: 1180 ± 60 nM; GI50 [15]: 1810 ± 50 nM; solubility [16]: ≥ 10 µM; IC50 ([17]; Experiment 1 of Fig. S3, control JS9A (in-house BMX-IN-1), read-out: BMX IC50): 360 ± 24 nM; IC50 ([17]; Experiment 2 of Fig. S3, control commercial BMX-IN-1, read-out: BMX IC50): 55 ± 35 nM; IC50 ([17]; Experiment 3 of Fig. S3, control commercial BMX-IN-1, read-out: BMX IC50): 230 ± 34.5 nM; IC50 ([17]; Experiment 4 of Fig. S3 = Fig. 1b, duplicate, mean ± S.D., read-out: BMX inhibition IC50): 50.2 nM and 50 nM; GI50 [18]: 7.68 ± 0.13 µM; GI50 [19]: 5.33 ± 0.19 µM; Kd [20]: 69 nM; GI50 [21]: 5.99 µM; GI50 [22]: 1700 nM
